Assays:
HIV RT (M/I) = target: T1, HIV RT (M/I) (Human immunodeficiency virus type 1 group M subtype B, UniProt P04585, M771I); test: Inhibition of HIV-RT from viral lysate, M184I mutant (M/I); format: biochemical; conditions: for % Inhibition / cpm/ml: M/I RT; for IC50: HIV RT (M/I) from viral lysates from infected PBMC, triplicates from one experiment
T1 construct: from tissue; host or cells: HIV viral lysate (M184I mutant strain)

Recombinant HIV RT (WT) = target: T2, Recombinant HIV RT (WT) (Human immunodeficiency virus type 1 group M subtype B, UniProt P04585); test: RT assay, recombinant wild type HIV-RT (cell-free); format: biochemical; conditions: triplicates from one experiment, read-out: Inhibition of RT Activity (IC50)
T2 construct: was evaluated against recombinant wild type HIV-RT
Experimental: [drawing 29] was evaluated against recombinant wild type HIV-RT, as well as the M184I and M184V mutants, according to the RT assay described in Eriksson B F, Chu C K, Schinazi R F; Antimicrob. Agents Chemother. 1989, 33, 1729-1734. The results are tabulated in Tables 2-5 and depicted in FIGS. 1-3.

[1] = target: T3, HIV-RT from viral-lysate (WT) (Human immunodeficiency virus type 1 group M subtype B, UniProt P04585); test: Inhibition of HIV-RT from viral-lysate (WT); format: biochemical; conditions: for % Inhibition / cpm/ml: RT from viral lysate (WT); for IC50: HIV RT (WT) from viral lysates from infected PBMC, triplicates from one experiment
T3 construct: from tissue; host or cells: HIV viral lysate

HIV RT (M/V) = target: T4, HIV RT (M/V) (Human immunodeficiency virus type 1 group M subtype B, UniProt P04585, M771V); test: Inhibition of HIV-RT from viral-lysate (M/V), M184V mutant; format: biochemical; conditions: for % Inhibition / cpm/ml: RT from viral lysate (M/V); for IC50: HIV RT (M/V) from viral lysates from infected PBMC, triplicates from one experiment
T4 construct: from tissue; host or cells: HIV viral lysate (M184V mutant strain)

HIV [2] = test: Anti-HIV activity in PBM cells; format: cell-based; conditions: Human immunodeficiency virus 1, PBMC
Experimental: (§1) The cyclobutyl nucleoside analogs (CBN) were evaluated for their anti-HIV activity and cytotoxicity in PBM, CEM and Vero cells, according to known procedures.
(§2) The following cyclobutyl nucleoside compounds were evaluated for their anti-HIV activity and cytotoxicity in PBM cells, according to standard procedures.

HIV [3] = test: Anti-HIV activity in PBM cells; format: cell-based; conditions: Example 114, refers to Table 6
Vero cells = test: Toxicity in Vero cells; format: cell-based; conditions: Chlorocebus sabaeus
Experimental: as §1, §2

PBM cells = test: Toxicity in PBM cells; format: cell-based; conditions: PBMC
Experimental: as §1, §2

CEM cells = test: Toxicity in CEM cells; format: cell-based; conditions: Homo sapiens, CCRF-CEM
Experimental: as §1, §2

HIV [4] = conditions: after 28 days treatment; preliminary human data; cited from earlier work

Q: With “5-fluoro-1-[cis-3-(hydroxymethyl)-cyclobutyl]-cytosine triphosphate [DLS183-TP]” as the molecule, how does the “% Inhibition” value (HIV RT (M/I); 0.1 μM) read?
A: 0.01%

Q: And the cpm/ml (HIV RT (M/I); 0.1 μM)?
A: 407041.44 cpm/ml

Q: And the “% Inhibition” value (HIV RT (M/I); 1 μM)?
A: 20%

Q: What about the cpm/ml (HIV RT (M/I); 1 μM) of the same molecule?
A: 272130.486 cpm/ml

Q: And the “% Inhibition” value (HIV RT (M/I); 10 μM)?
A: 53%

Q: And the cpm/ml (HIV RT (M/I); 10 μM)?
A: 160719.12 cpm/ml

Q: What about the IC50 (HIV RT (M/I)) of the same molecule?
A: 6.06 µM

Q: What about the IC50 (Recombinant HIV RT (WT)) of the same molecule?
A: 4.74 µM

Q: What about the “% Inhibition” value ([1]; 0.1 μM) of the same molecule?
A: 0.01%

Q: What about the cpm/ml ([1]; 0.1 μM) of the same molecule?
A: 280781.826 cpm/ml

Q: And the “% Inhibition” value ([1]; 1 μM)?
A: 18%

Q: And the cpm/ml ([1]; 1 μM)?
A: 228126.312 cpm/ml

Q: What about the “% Inhibition” value ([1]; 10 μM) of the same molecule?
A: 51%

Q: And the cpm/ml ([1]; 10 μM)?
A: 134616.36 cpm/ml

Q: And the IC50 [1]?
A: 6.85 µM

Q: And the “% Inhibition” value (HIV RT (M/V); 0.1 μM)?
A: 5%

Q: And the cpm/ml (HIV RT (M/V); 0.1 μM)?
A: 297603.432 cpm/ml

Q: What about the “% Inhibition” value (HIV RT (M/V); 1 μM) of the same molecule?
A: 22%

Q: What about the cpm/ml (HIV RT (M/V); 1 μM) of the same molecule?
A: 245062.692 cpm/ml

Q: And the “% Inhibition” value (HIV RT (M/V); 10 μM)?
A: 51%

Q: What about the cpm/ml (HIV RT (M/V); 10 μM) of the same molecule?
A: 152688.27 cpm/ml

Q: And the IC50 (HIV RT (M/V))?
A: 6.91 µM

Q: Which “% Inhibition” value (HIV RT (M/I); 0.1 μM) does the source give for Nc1ccn([C@@H]2CS[C@H](COP(=O)(O)OP(=O)(O)OP(=O)(O)O)O2)c(=O)n1 [Compound 3TC-TP, reference compound] here?
A: 0.03%

Q: What about the cpm/ml (HIV RT (M/I); 0.1 μM) of the same molecule?
A: 329435.346 cpm/ml

Q: And the “% Inhibition” value (HIV RT (M/I); 1 μM)?
A: 0.03%

Q: And the cpm/ml (HIV RT (M/I); 1 μM)?
A: 329605.62 cpm/ml

Q: And the “% Inhibition” value (HIV RT (M/I); 10 μM)?
A: 13%

Q: And the cpm/ml (HIV RT (M/I); 10 μM)?
A: 298628.406 cpm/ml

Q: And the IC50 (HIV RT (M/I))?
A: > 10 µM

Q: And the IC50 (Recombinant HIV RT (WT))?
A: 2.99 µM

Q: And the “% Inhibition” value ([1]; 0.1 μM)?
A: 3.1%

Q: And the cpm/ml ([1]; 0.1 μM)?
A: 268420.2 cpm/ml

Q: And the “% Inhibition” value ([1]; 1 μM)?
A: 22%

Q: What about the cpm/ml ([1]; 1 μM) of the same molecule?
A: 215883.012 cpm/ml

Q: And the “% Inhibition” value ([1]; 10 μM)?
A: 55%

Q: What about the cpm/ml ([1]; 10 μM) of the same molecule?
A: 124341.312 cpm/ml

Q: And the IC50 [1]?
A: 6.53 µM

Q: What about the “% Inhibition” value (HIV RT (M/V); 0.1 μM) of the same molecule?
A: 13%

Q: And the cpm/ml (HIV RT (M/V); 0.1 μM)?
A: 270239.712 cpm/ml

Q: And the “% Inhibition” value (HIV RT (M/V); 1 μM)?
A: 7%

Q: What about the cpm/ml (HIV RT (M/V); 1 μM) of the same molecule?
A: 288267.666 cpm/ml

Q: What about the “% Inhibition” value (HIV RT (M/V); 10 μM) of the same molecule?
A: 0.01%

Q: And the cpm/ml (HIV RT (M/V); 10 μM)?
A: 336946.272 cpm/ml

Q: And the IC50 (HIV RT (M/V))?
A: > 10 µM

Q: With O=c1ccn([C@@H]2C[C@H](CO)C2F)c(=O)[nH]1 (stereo partly drawn) [DLS-194] as the molecule, how does the EC50 (HIV [2]) read?
A: > 100 µM

Q: With Nc1ccn([C@@H]2C[C@H](CO)C2F)c(=O)n1 (stereo partly drawn) [DLS-195] as the molecule, how does the EC50 (HIV [2]) read?
A: > 100 µM

Q: With O=c1[nH]c(=O)n([C@@H]2C[C@H](CO)C2F)cc1F (stereo partly drawn) [DLS-196] as the molecule, how does the EC50 (HIV [2]) read?
A: > 100 µM

Q: With OC[C@H]1C[C@@H](n2cnc3c(Cl)ncnc32)C1F (stereo partly drawn) [DLS-197] as the molecule, how does the EC50 (HIV [2]) read?
A: > 100 µM

Q: Which results are given for Nc1ncnc2c1ncn2[C@@H]1C[C@H](CO)C1F (stereo partly drawn) [DLS-206]?
A: EC50 (HIV [2]): 50.4 µM; EC90 (HIV [2]): > 100 µM; inhibition of HIV-RT (in words) (HIV [3]): significant inhibition; IC50 (Vero cells): > 100 µM; IC50 (PBM cells): > 100 µM; IC50 (CEM cells): > 100 µM

Q: Which EC50 (HIV [2]) does the source give for Nc1ncnc2c1ncn2[C@@H]1C[C@H](CO)C1O (stereo partly drawn) [DLS-207] here?
A: 33.7 µM

Q: What about the EC90 (HIV [2]) of the same molecule?
A: 60.1 µM

Q: And the “inhibition of HIV-RT (in words)” value (HIV [3])?
A: significant inhibition

Q: What about the IC50 (Vero cells) of the same molecule?
A: 97.8 µM

Q: And the IC50 (PBM cells)?
A: 13.8 µM

Q: What about the IC50 (CEM cells) of the same molecule?
A: > 100 µM

Q: Which EC50 (HIV [2]) does the source give for O=c1[nH]c(=O)n(C[C@@H]2C[C@H](CO)C2O)cc1F (stereo partly drawn) [DLS-210] here?
A: > 100 µM

Q: For Nc1ncnc2c1ncn2C[C@H]1C[C@H](CO)C1 [DLS-211], which EC50 (HIV [2]) is on record?
A: > 100 µM

Q: With Nc1ncnc2c1ncn2CC1CC(CO)C1 (stereo not drawn) [DLS-212] as the molecule, how does the EC50 (HIV [2]) read?
A: > 100 µM

Q: With Nc1nc(O[C@@H]2C[C@H](CO)C2F)ncc1F (stereo partly drawn) [DLS-221] as the molecule, how does the EC50 (HIV [2]) read?
A: > 100 µM

Q: With Nc1nc(=O)n([C@@H]2C[C@H](CO)C2F)cc1F (stereo partly drawn) [DLS-222] as the molecule, how does the EC50 (HIV [2]) read?
A: > 100 µM

Q: What does the source list for Nc1nc2c(ncn2[C@@H]2C[C@H](CO)C2F)c(=O)[nH]1 (stereo partly drawn) [DLS-223]?
A: EC50 (HIV [2]): 27.7 µM; EC90 (HIV [2]): > 100 µM; inhibition of HIV-RT (in words) (HIV [3]): significant inhibition; IC50 (Vero cells): > 100 µM; IC50 (PBM cells): > 100 µM; IC50 (CEM cells): > 100 µM

Q: Which “reductions in HIV viral load” value (HIV [4]) does the source give for Nc1nc2c(ncn2[C@@H]2CC(CO)C2CO)c(=O)[nH]1 (stereo partly drawn) [lobucavir, (R)-9-[2,3-Bis(hydroxymethyl)cyclobutyl]guanine] here?
A: ≤ 1.5 log
